This experiment deals with IDH2 R140Q (Homo sapiens (Human), UniProt P48735, R140Q). Nature of the experiment: IDH2 R140Q enzymatic cofactor depletion assay (diaphorase/resazurin). It counts as biochemical. The conditions noted are these: IDH2 R140Q enzyme, one hour preincubation with compound, one hour reaction; read-out: Enz R140Q. The method, boiled down:
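Enzyme preincubated with compound 1 h at room temperature, then reaction started with 50 μM NADPH and 6.3 mM α-KG and run 1 h at room temperature. Remaining NADPH measured by diaphorase (36 μg/ml)/resazurin (60 μM) stop mix, fluorescence read at Ex544/Em590 after 1 min.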

Where only a bound is given, the exact number is not on record here.

Sequence of IDH2 R140Q (P48735 40-452 R140Q): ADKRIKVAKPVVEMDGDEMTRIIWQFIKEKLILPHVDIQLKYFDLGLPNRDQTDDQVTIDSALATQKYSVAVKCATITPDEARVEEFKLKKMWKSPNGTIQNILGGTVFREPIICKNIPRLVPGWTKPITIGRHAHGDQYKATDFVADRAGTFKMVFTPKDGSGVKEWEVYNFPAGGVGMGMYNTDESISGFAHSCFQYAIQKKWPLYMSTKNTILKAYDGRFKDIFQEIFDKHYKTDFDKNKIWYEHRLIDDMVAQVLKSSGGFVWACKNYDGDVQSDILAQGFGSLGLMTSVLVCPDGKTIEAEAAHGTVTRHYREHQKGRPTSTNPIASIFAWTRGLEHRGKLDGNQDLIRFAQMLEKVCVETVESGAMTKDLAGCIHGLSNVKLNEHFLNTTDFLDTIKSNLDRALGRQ

Consider `O=C(Nc1ccc(F)cc1)Nc1cc(S(=O)(=O)NCC2CC2)ccc1C1=CCOCC1` [Compound 153], for which the IC50 was 1000 to 10000 nM. The figure for `O=C(Nc1cccc(C(F)(F)F)c1)Nc1cc(S(=O)(=O)NCC2CC2)ccc1C1=CCOCC1` [Compound 154, N-(cyclopropylmethyl)-4-(3,6-dihydro-2H-pyran-4-yl)-3-(3-(3-(trifluoromethyl)phenyl)ureido)benzene sulfonamide] is 100 to 1000 nM; for `O=C(Nc1ccc(F)c(Cl)c1)Nc1cc(S(=O)(=O)NCC2CC2)ccc1C1=CCOCC1` [Compound 155, 3-(3-(3-chloro-4-fluorophenyl)ureido)-N-(cyclopropylmethyl)-4-(3,6-dihydro-2H-pyran-4-yl)benzene sulfonamide] it is 100 to 1000 nM. To `O=C(Nc1ccc(F)c(C(F)(F)F)c1)Nc1cc(S(=O)(=O)NCC2CC2)ccc1C1=CCOCC1` [Compound 156, N-(cyclopropylmethyl)-4-(3,6-dihydro-2H-pyran-4-yl)-3-(3-(4-fluoro-3-(trifluoromethyl)phenyl)ureido)benzenesulfonamide] belongs 100 to 1000 nM; to `O=C(Nc1cccc(C(F)(F)F)c1)Nc1cc(S(=O)(=O)NCC(F)(F)F)ccc1C1=CCOCC1` [Compound 157, 4-(3,6-dihydro-2H-pyran-4-yl)-N-(2,2,2-trifluoroethyl)-3-(3-(3-(trifluoromethyl)phenyl)ureido)benzene sulfonamide], 1000 to 10000 nM; to `O=C(Nc1ccc(F)c(Cl)c1)Nc1cc(S(=O)(=O)NCC(F)(F)F)ccc1C1=CCOCC1` [Compound 158, 3-(3-(3-chloro-4-fluorophenyl)ureido)-4-(3,6-dihydro-2H-pyran-4-yl)-N-(2,2,2-trifluoroethyl)benzene sulfonamide], 100 to 1000 nM. The figure for `O=C(Nc1ccc(F)c(C(F)(F)F)c1)Nc1cc(S(=O)(=O)NCC(F)(F)F)ccc1C1=CCOCC1` [Compound 159, 4-(3,6-dihydro-2H-pyran-4-yl)-3-(3-(4-fluoro-3-(trifluoromethyl)phenyl)ureido)-N-(2,2,2-trifluoroethyl)benzenesulfonamide] is 100 to 1000 nM; for `O=C(Nc1cccc(C(F)(F)F)c1)Nc1cc(S(=O)(=O)Nc2ccccc2)ccc1C1=CCOCC1` [Compound 161, 4-(3,6-dihydro-2H-pyran-4-yl)-N-phenyl-3-(3-(3-(trifluoromethyl)phenyl)ureido)benzene sulfonamide] it is 100 to 1000 nM. For `O=C(Nc1cccc(C(F)(F)F)c1)Nc1cc(S(=O)(=O)NCC2CC2)ccc1C1CCCCO1` (centres unmarked) [Compound 162, N-(cyclopropylmethyl)-4-(tetrahydro-2H-pyran-2-yl)-3-(3-(3-(trifluoromethyl)phenyl)ureido)benzene sulfonamide], the IC50 was in the range of 100 to 1000 nM. The figure for `O=C(Nc1cccc(Cl)c1)Nc1cc(S(=O)(=O)NCC2CC2)ccc1C1CCCCO1` (centres unmarked) [Compound 163, 3-(3-(3-chlorophenyl)ureido)-N-(cyclopropylmethyl)-4-(tetrahydro-2H-pyran-2-yl)benzenesulfonamide] is 100 to 1000 nM; for `O=C(Nc1ccc(F)c(C(F)(F)F)c1)Nc1cc(S(=O)(=O)NCC2CC2)ccc1C1CCCCO1` (centres unmarked) [Compound 164, N-(cyclopropylmethyl)-3-(3-(4-fluoro-3-(trifluoromethyl)phenyl)ureido)-4-(tetrahydro-2H-pyran-2-yl)benzenesulfonamide] it is 100 to 1000 nM; for `O=C(Nc1cccc(C(F)(F)F)c1)Nc1cc(S(=O)(=O)NCC(F)(F)F)ccc1C1CCCCO1` (centres unmarked) [Compound 165, 4-(tetrahydro-2H-pyran-2-yl)-N-(2,2,2-trifluoroethyl)-3-(3-(3-(trifluoromethyl)phenyl)ureido)benzene sulfonamide] it is 100 to 1000 nM. In the case of `O=C(Nc1ccc(F)c(Cl)c1)Nc1cc(S(=O)(=O)NCC(F)(F)F)ccc1C1CCCCO1` (centres unmarked) [Compound 166, 3-(3-(3-chloro-4-fluorophenyl)ureido)-4-(tetrahydro-2H-pyran-2-yl)-N-(2,2,2-trifluoroethyl)benzene sulfonamide], the IC50 fell in the range of 100 to 1000 nM. The figure for `O=C(Nc1ccc(F)c(C(F)(F)F)c1)Nc1cc(S(=O)(=O)NCC(F)(F)F)ccc1C1CCCCO1` (centres unmarked) [Compound 167, 3-(3-(4-fluoro-3-(trifluoromethyl)phenyl)ureido)-4-(tetrahydro-2H-pyran-2-yl)-N-(2,2,2-trifluoroethyl)benzenesulfonamide] is 100 to 1000 nM.

In the case of `O=C(Nc1cccc(Cl)c1)Nc1cc(S(=O)(=O)NCC(F)(F)F)ccc1C1CCCCO1` (centres unmarked) [Compound 168, 3-(3-(3-chlorophenyl)ureido)-4-(tetrahydro-2H-pyran-2-yl)-N-(2,2,2-trifluoroethyl)benzenesulfonamide], the IC50 lay in the range of 100 to 1000 nM. The figure for `O=C(Nc1ncc(Cl)s1)Nc1cc(S(=O)(=O)NCC(F)(F)F)ccc1C1CCCCO1` (centres unmarked) [Compound 169, 3-(3-(5-chlorothiazol-2-yl)ureido)-4-(tetrahydro-2H-pyran-2-yl)-N-(2,2,2-trifluoroethyl)benzene sulfonamide] is 100 to 1000 nM; for `O=C(Nc1cccc(C(F)(F)F)c1)Nc1cc(S(=O)(=O)Nc2ccccc2)ccc1C1CCCCO1` (centres unmarked) [Compound 170, N-phenyl-4-(tetrahydro-2H-pyran-2-yl)-3-(3-(3-(trifluoromethyl)phenyl)ureido)benzenesulfonamide] it is 100 to 1000 nM. To `O=C(Nc1ncc(Cl)s1)Nc1cc(S(=O)(=O)NCC(F)(F)F)ccc1C1CCOC1` (centres unmarked) [Compound 172, 3-(3-(5-chlorothiazol-2-yl)ureido)-4-(tetrahydrofuran-3-yl)-N-(2,2,2-trifluoroethyl)benzene sulfonamide] belongs 1000 to 10000 nM; to `O=C(Nc1cccc(C(F)(F)F)c1)Nc1cc(S(=O)(=O)NCC(F)(F)F)ccc1C1CCCO1` (centres unmarked) [Compound 173, 4-(tetrahydrofuran-2-yl)-N-(2,2,2-trifluoroethyl)-3-(3-(3-(trifluoromethyl)phenyl)ureido)benzene sulfonamide], 100 to 1000 nM; to `O=C(Nc1cc(C(F)(F)F)ccn1)Nc1cc(S(=O)(=O)NCC(F)(F)F)ccc1C1CCCO1` (centres unmarked) [Compound 174, 4-(tetrahydrofuran-2-yl)-N-(2,2,2-trifluoroethyl)-3-(3-(4-(trifluoromethyl)pyridin-2-yl)ureido)benzene sulfonamide], 1000 to 10000 nM. With `O=C(Nc1cccc(C(F)(F)F)c1)Nc1cc(S(=O)(=O)NCC(F)(F)F)ccc1OCC1CC1` [Compound 175, 4-(cyclopropylmethoxy)-N-(2,2,2-trifluoroethyl)-3-(3-(3-(trifluoromethyl)phenyl)ureido)benzenesulfonamide], the IC50 was in the range of 100 to 1000 nM. As to `O=C(Nc1cccc(C(F)(F)F)c1)Nc1cc(S(=O)(=O)NCC(F)(F)F)ccc1OCC1CCCO1` (centres unmarked) [Compound 176, 4-((tetrahydrofuran-2-yl)methoxy)-N-(2,2,2-trifluoroethyl)-3-(3-(3-(trifluoromethyl)phenyl)ureido)benzenesulfonamide], the IC50 was 100 to 1000 nM. To `CCOc1ccc(S(=O)(=O)NCC(F)(F)F)cc1NC(=O)Nc1cccc(C(F)(F)F)c1` [Compound 177, 4-ethoxy-N-(2,2,2-trifluoroethyl)-3-(3-(3-(trifluoromethyl)phenyl)ureido)benzenesulfonamide] belongs < 100 nM; to `O=C(Nc1cccc(C(F)(F)F)c1)Nc1cc(S(=O)(=O)NCC(F)(F)F)ccc1OC1CCOCC1` [Compound 178, 4-((tetrahydro-2H-pyran-4-yl)oxy)-N-(2,2,2-trifluoroethyl)-3-(3-(3-(trifluoromethyl)phenyl)ureido)benzenesulfonamide], 100 to 1000 nM; to `N#CC1(NS(=O)(=O)c2ccc(OCC3CC3)c(NC(=O)Nc3cccc(C(F)(F)F)c3)c2)CC1` [Compound 179, N-(1-cyanocyclopropyl)-4-(cyclopropylmethoxy)-3-(3-(3-(trifluoromethyl)phenyl)ureido)benzene sulfonamide], 100 to 1000 nM. To `CCOc1ccc(S(=O)(=O)NC2COC2)cc1NC(=O)Nc1cccc(C(F)(F)F)c1` [Compound 180, 4-ethoxy-N-(oxetan-3-yl)-3-(3-(3-(trifluoromethyl)phenyl)ureido)benzenesulfonamide] belongs 100 to 1000 nM; to `CCOc1ccc(S(=O)(=O)NC2(C#N)CC2)cc1NC(=O)Nc1cccc(C(F)(F)F)c1` [Compound 181, N-(1-cyanocyclopropyl)-4-ethoxy-3-(3-(3-(trifluoromethyl)phenyl)ureido)benzenesulfonamide], 100 to 1000 nM; to `O=C(Nc1cccc(C(F)(F)F)c1)Nc1cc(S(=O)(=O)NC2COC2)ccc1OCC1CC1` [Compound 183, 4-(cyclopropylmethoxy)-N-(oxetan-3-yl)-3-(3-(3-(trifluoromethyl)phenyl)ureido)benzenesulfonamide], 100 to 1000 nM. To `O=C(Nc1cccc(C(F)(F)F)c1)Nc1cc(S(=O)(=O)NCC(F)(F)F)ccc1OCC1CCOC1` (centres unmarked) [Compound 184, 4-((tetrahydrofuran-3-yl)methoxy)-N-(2,2,2-trifluoroethyl)-3-(3-(3-(trifluoromethyl)phenyl)ureido)benzenesulfonamide] belongs 100 to 1000 nM.

For the molecule `CC(C)Oc1ccc(S(=O)(=O)NCC(F)(F)F)cc1NC(=O)Nc1cccc(C(F)(F)F)c1` [Compound 185, 4-isopropoxy-N-(2,2,2-trifluoroethyl)-3-(3-(3-(trifluoromethyl)phenyl)ureido)benzenesulfonamide], the IC50 was in the range of 100 to 1000 nM. The figure for `O=C(Nc1cccc(C(F)(F)F)c1)Nc1cc(S(=O)(=O)NCC(F)(F)F)ccc1Oc1cccnc1` [Compound 186, 4-(pyridin-3-yloxy)-N-(2,2,2-trifluoroethyl)-3-(3-(3-(trifluoromethyl)phenyl)ureido)benzenesulfonamide] is 100 to 1000 nM; for `O=C(Nc1ncc(Cl)s1)Nc1cc(S(=O)(=O)NCC(F)(F)F)ccc1OCC1CC1` [Compound 187, 3-(3-(5-chlorothiazol-2-yl)ureido)-4-(cyclopropylmethoxy)-N-(2,2,2-trifluoroethyl)benzenesulfonamide] it is 100 to 1000 nM.

(Values after US10202339B2, “Therapeutic compounds and compositions” (AGIOS PHARMACEUTICALS, INC., priority 2012, dated 2019).)
